# Test results: patent US5084479A, “Novel methods for treating neurodegenerative diseases” (priority 1990, dated 1992)
# Values joined by “and” are separate entries in the source; they are usually repeats but may differ in a detail not shown here. Equal values may be shown once. Read-outs that look alike come from different tables or passages of the source.
# Tests used:
# [1] = test system: glycine modulatory site of the NMDA receptor-channel complex; assay type: cell-based, rat; conditions: for Effect on glycine-potentiated NMDA-induced current: gabapentin 10 μM with glycine 1 μM and strychnine 10 μM, reversed on washing; for Effect on glycine-potentiated NMDA-induced current / Effect on NMDA-induced current in the absence of glycine: acetic acid; for Effect on NMDA-induced current in the absence of glycine: gabapentin 10 μM, bath application, reversed on washing for four minutes
# Experimental: Whole-cell patch clamp techniques were employed to investigate the effects of the antiepileptic drug, gabapentin, upon the responses of striatal neurons in dissociated culture to NMDA.
# Striata were aseptically dissected from 16-day-old rat fetuses and mechanically triturated in enzyme-free Puck's saline (Gibco, UK). The resulting suspension was diluted to 1×10^6 cells/mL using freshly prepared medium. The medium was composed of Minimal essential medium with Earle's salts and included Fetal calf serum (5% v/v), Horse serum (5% v/v), L-Glutamine (2 mM), Insulin ([…]), and HEPES (5 mM) buffer (all Gibco, UK).
# The cells were plated onto Poly-L-ornithine ([…]; Sigma) coated glass coverslips (diameter 13 mm) and incubated at 37° C. in a humidified atmosphere of 95% Air/5% CO2.
# After seven days, the media was replaced with freshly prepared media containing (+)-5-fluoro-deoxyuridine (10 μM; Sigma) to inhibit the proliferation of nonneuronal elements. Cultures were subsequently fed twice weekly.
# Patch electrodes with ohmic resistances of 6-10 M .OMEGA. were filled with an intracellular solution of the following composition (all mM); CsF 140.0, CaCl2 0.5, NaCl 1.0, K-EGTA 5.0 and HEPES 10.0. All recordings were made at 20°-22° C. using a List EPC7 amplifier and the resulting signal was filtered at 10 KHz. Fast and slow transient capacity compensation was employed, and cells were voltage clamped at a holding potential of -70 mV, unless otherwise stated.
# Drugs were dissolved to a known concentration in the extracellular solution and were applied via the perfusion system. NMDA was applied via the perfusion system, or by rapid pressure ejection. All drugs were obtained from Sigma, except gabapentin which was synthesized at Goedecke (Warner-Lambert) Germany.
# [2] = test system: NMDA receptor-channel complex; test: Intracellular recording of NMDA-induced depolarization, paraventricular thalamus (PVT) neurones in brain slices; assay type: cell-based, rat; conditions: gabapentin 300 μM
# Experimental: (§1) Intracellular recordings were made from neurones of either paraventricular thalamus (n =8, 7 slices) or CA1 region of the hippocampus (n =5, 5 slices) contained in […] rat brain slices. NMDA applied via the perfusion system, produced a concentration-dependent depolarization of all neurones tested. In every case but one, control response to NMDA was reduced by a concomitant application of gabapentin (300 μM). The concentration-response curves for NMDA in the presence and absence of gabapentin show a noncompetitive interaction of gabapentin with NMDA receptor-channel complex.
# (§2) Coronal slices of rat brain at the level of the ventromedial hypothalamus were chosen since these contain both hippocampus and paraventricular thalamus (PVT). Slices were perfused in normal (1.3 mM magnesium) artificial cerebrospinal fluid (ACSF) at 3 mL/min. Conventional intracellular recording techniques were employed, using 1M potassium acetate-filled electrodes pulled on a Brown-Flaming microelectrode puller type P-87.
# Drugs were made up as stock solutions in distilled water (NMDA 50 mM; gabapentin 100 mM) and stored frozen prior to use. The required concentrations of each drug were obtained by direct dilution with ACSF at the time of the experiment. Control dose-response curves for NMDA were obtained either in the presence or absence of tetrodotoxin (TTX). NMDA was applied to a 30-second period, with at least five minutes between successive doses. Gabapentin was added to the same NMDA-containing solutions and the dose-response curves repeated. Experiments were also performed using repeated single doses of NMDA to ensure that the effects of gabapentin were not due to rundown of the NMDA response.
# [3] = test system: NMDA receptor-channel complex; test: Intracellular recording of NMDA-induced depolarization, CA1 hippocampal neurones in brain slices; assay type: cell-based, rat; conditions: gabapentin 300 μM
# Experimental: as §1, §2
# Drugs were made up as stock solutions in distilled water (NMDA 50 mM; gabapentin 100 mM) and stored frozen prior to use. The required concentrations of each drug were obtained by direct dilution with ACSF at the time of the experiment. Control dose-response curves for NMDA were obtained either in the presence or absence of tetrodotoxin (TTX). […]
# [4] = test system: seizures elicited by 4-aminobutanoic acid (GABA) synthesis or GABA receptor antagonists; conditions: mice; cited from earlier work
# [5] = test system: seizures elicited by NMDA; conditions: in vivo; cited from earlier work
# GABA = conditions: cited from earlier work
# GABAB = conditions: cited from earlier work
# neuronal GABA uptake = conditions: cited from earlier work
# [6] = in vivo; cited from earlier work
# [7] = in vivo; cited from earlier work; remark: listed apart in the source
smiles,measurement,setting,value
"NCC(=O)O [Glycine, reference compound]",Effect of glycine on NMDA-induced peak current,[1],potentiation of the NMDA induced peak current
same,Effect of glycine on sustained inward current produced by bath application of NMDA,"[1]; NMDA 100 μM bath application, glycine 1 μM",markedly potentiated
same,"Peak Inward Current (pA), relative to NMDA = 100%",[1]; striatal neurons,589 ± 156% and 713 ± 260%
"NCC1(CC(=O)O)CCCCC1 [gabapentin, 1-aminomethyl-cyclohexane acetic acid]","Peak Inward Current (pA), relative to NMDA = 100%","[1]; Table 2, NMDA + 10 μM GABA-P, no exogenous glycine, n = 4",305 ± 88%
same,"Peak Inward Current (pA), relative to NMDA = 100%","[1]; Table 2, NMDA after 'wash' of 10 μM GABA-P, n = 4",106 ± 9%
same,"Peak Inward Current (pA), relative to NMDA = 100%","[1]; Table 3, 'wash' of GABA-P, NMDA + 1 μM Glycine + 10 μM Strychnine, n = 3",257 ± 418%
same,"Peak Inward Current (pA), relative to NMDA = 100%","[1]; Table 3, NMDA + 1 μM Glycine + 10 μM Strychnine + 10 μM GABA-P, n = 3",201 ± 24%
same,Effect on glycine-potentiated NMDA-induced current,[1],antagonism of the glycine-induced potentiation of the NMDA-induced current
same,Effect on glycine-potentiated NMDA-induced current,[1]; listed as Gabapentin,antagonism of the glycine-potentiated NMDA current
same,Effect on NMDA-induced current in the absence of glycine,[1],potentiation of the NMDA-induced current
same,Effect on NMDA-induced current in the absence of glycine,[1]; listed as Gabapentin,reversible potentiation of the NMDA-induced current
same,Reduction of NMDA depolarization,"[2]; 100 μM NMDA for 30 s, TTX present, thalamic neurones (FIG. 5)",~60%
same,Nature of the block of the NMDA response,"[2]; NMDA dose-response curves, PVT neurones (FIG. 6B)",noncompetitive
same,Effect on response (depolarization) to NMDA,"[2]; high (30 to 50 μM) concentrations of NMDA, PVT neurones",reduced
same,Effect on NMDA-induced depolarization,"[3]; CA1 hippocampal neurones, more evident as NMDA concentration increased",reduction in the NMDA-induced depolarization
same,Nature of the block of the NMDA response,"[3]; NMDA dose-response curves, hippocampus (FIG. 8B)",noncompetitive
same,Protection from seizures,[4],protect mice from seizures
same,Latency of onset of seizures elicited by NMDA,[5],prolong the latency of onset of seizures
same,Displacement of GABA binding,GABA,does not displace
same,Displacement of GABAB binding,GABAB,does not displace
same,Interference with neuronal GABA uptake,neuronal GABA uptake,does not interfere with neuronal GABA uptake
same,Metabolism in the body,[6],not metabolized in the body
same,Tolerability,[7],well tolerated
same,Toxicity,[7],relatively nontoxic
